Laboratory results published in patent US9896445B2, “Heterocyclic inhibitors of ERK1 and ERK2 and their use in the treatment of cancer” (Asana Biosciences, LLC, priority 2015, dated 2018).
pIC50: −log10 of the molar value. Where a name gives a salt, the structure may show the parent alone.

Columns and labels:
ERK1 = molecular target: T1, ERK1 (Homo sapiens, UniProt P27361); assay: ERK1 HTRF (biochemical) assay
T1 construct: purchased Jubilant Biosys
Procedure: ERK1 and ERK2 HTRF (Biochemical) Assays
These assays employed a homogeneous time resolved fluorescence (HTRF) technique. […] The plate was incubated at room temperature for 60 min with shaking. […] The IC50 values (half maximal inhibitory concentration values) were subsequently determined using a sigmoidal dose-response curve (variable slope) in GraphPad Prism® 5 software.

ERK2 = molecular target: T2, ERK2 (Homo sapiens, UniProt P28482); assay: ERK2 HTRF (biochemical) assay
T2 construct: purchased Jubilant Biosys
Method in brief: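 Compounds were tested as half-log dilutions from 0.0005 to 10 uM in Tris pH 7.5/MgCl2 buffer, with a substrate mix of 1 uM biotin-MBP peptide and 24 uM ATP and an enzyme mix of 25 nM ERK2. Reaction ran 60 min at room temperature. Phospho-MBP was detected by HTRF (Eu-anti-phospho-MBP/SA-APC, 665/620 nm), and IC50 was fitted with a variable-slope sigmoidal curve.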

T1 sequence (P27361 whole entry): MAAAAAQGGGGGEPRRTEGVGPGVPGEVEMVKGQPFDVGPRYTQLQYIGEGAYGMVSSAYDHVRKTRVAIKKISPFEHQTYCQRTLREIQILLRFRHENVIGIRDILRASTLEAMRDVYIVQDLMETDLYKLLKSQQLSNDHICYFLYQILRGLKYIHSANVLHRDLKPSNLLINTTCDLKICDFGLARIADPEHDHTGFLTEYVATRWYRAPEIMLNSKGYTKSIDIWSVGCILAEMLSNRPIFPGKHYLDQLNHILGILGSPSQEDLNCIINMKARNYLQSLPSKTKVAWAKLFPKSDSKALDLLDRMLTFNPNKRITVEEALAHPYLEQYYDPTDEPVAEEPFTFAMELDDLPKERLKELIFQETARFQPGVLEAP
T2 sequence (P28482 whole entry): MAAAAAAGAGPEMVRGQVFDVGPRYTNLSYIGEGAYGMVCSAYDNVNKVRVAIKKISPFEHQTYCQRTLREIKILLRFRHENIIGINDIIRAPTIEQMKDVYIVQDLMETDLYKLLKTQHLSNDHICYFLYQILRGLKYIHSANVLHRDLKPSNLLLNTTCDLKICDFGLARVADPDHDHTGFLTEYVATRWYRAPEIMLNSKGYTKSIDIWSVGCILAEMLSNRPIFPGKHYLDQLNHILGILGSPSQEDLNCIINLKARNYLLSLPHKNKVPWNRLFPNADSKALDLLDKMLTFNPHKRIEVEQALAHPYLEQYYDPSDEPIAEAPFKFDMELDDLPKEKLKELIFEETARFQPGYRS

Row | SMILES | pIC50 (ERK1; HTRF) | pIC50 (ERK2; HTRF) | pIC50 (ERK1; HTRF biochemical assay) | pIC50 (ERK2; HTRF biochemical assay)
1 | Cc1cnc(N[C@H]2CCOC2)nc1-n1ccc(C(=O)N[C@H](CO)c2cccc(Cl)c2)c1 [Compound 161, N-((S)-1-(3-chlorophenyl)-2-hydroxyethyl)-1-(5-methyl-2-(((S)-tetrahydrofuran-3-yl)amino)pyrimidin-4-yl)-1H-pyrrole-3-carboxamide] | > 7.30 | ≥ 7.30 | – | –
2 | CNCCNC[C@@H](NC(=O)c1cn(-c2nc(NC3CCOCC3)ncc2C)cn1)c1cccc(Cl)c1 [Example 345, ((S)-N-(1-(3-chlorophenyl)-2-((2-(methylamino)ethyl)amino)ethyl)-1-(5-methyl-2-((tetrahydro-2H-pyran-4-yl)amino)-pyrimidin-4-yl)-1H-imidazole-4-carboxamide2,2,2-trifluoroacetate] | – | – | > 7.30 | ≥ 7.30
3 | Cc1ccc(C(CO)NC(=O)c2cn(-c3nc(NC4CCOCC4)ncc3C)cn2)s1 (stereo not shown) [Example 261, N-(2-hydroxy-1-(5-methylthiophen-2-yl)ethyl)-1-(5-methyl-2-((tetrahydro-2H-pyran-4-yl)amino)-pyrimidin-4-yl)-1H-imidazole-4-carboxamide] | > 7.30 | ≥ 7.30 | – | –
4 | Cc1cnc(N[C@H]2CCOC2)nc1-n1cnc(C(=O)N[C@H](CN)c2cccc(Cl)c2)c1 [Example 255, N-((S)-2-amino-1-(3-chlorophenyl)-ethyl)-1-(5-methyl-2-(((S)-tetrahydro-furan-3-yl)amino)-pyrimidin-4-yl)-1H-imidazole-4-carboxamide] | > 7.30 | ≥ 7.30 | – | –
5 | Cc1cnc(NC2CC2)nc1-n1cc(C(=O)NC(CO)c2cccc(Cl)c2)cn1 (stereo not shown) [Compound 40, N-(1-(3-chlorophenyl)-2-hydroxyethyl)-1-(2-(cyclopropyl-amino)-5-methylpyrimidin-4-yl)-1H-pyrazole-4-carboxamide] | 7.00 to 7.30 | 7.00 to 7.30 | – | –
6 | Cc1cnc(Nc2ccc3c(c2)CCCO3)nc1-n1ccc(C(=O)NC(CO)c2ccccc2)c1 (stereo not shown) [Compound 173, 1-(2-(chroman-6-ylamino)-5-methyl-pyrimidin-4-yl)-N-(2-hydroxy-1-phenylethyl)-1H-pyrrole-3-carboxamide] | > 7.30 | ≥ 7.30 | – | –
7 | Cc1cnc(Nc2ccc(F)cc2)nc1-n1cnc(C(=O)N[C@H](CN)c2cccc(Cl)c2)c1 [Compound 248, (S)-N-(2-amino-1-(3-chlorophenyl)-ethyl)-1-(2-((4-fluorophenyl)amino)-5-methyl-pyrimidin-4-yl)-1H-imidazole-4-carboxamide] | > 7.30 | ≥ 7.30 | – | –
8 | Cc1cnc(Nc2ccc3c(c2)OCC3)nc1-n1ccc(C(=O)NC(CO)c2ccccc2)c1 (stereo not shown) [Compound 185] | > 7.30 | ≥ 7.30 | – | –
9 | CCC(C)Nc1ncc(C)c(-n2ccc(C(=O)N[C@H](CO)c3ccc(F)c(Cl)c3)c2)n1 (stereo partly drawn) [Compound 197, 1-(2-(sec-butylamino)-5-methylpyrimidin-4-yl)-N-((S)-1-(3-chloro-4-fluoro-phenyl)-2-hydroxy-ethyl)-1H-pyrrole-3-carboxamide] | > 7.30 | ≥ 7.30 | – | –
10 | Cc1cnc(Nc2ccc(F)cc2Cl)cc1-n1cnc(C(=O)NC(CO)c2ccccc2)c1 (stereo not shown) [Compound 85, 1-(2-((2-chloro-4-fluorophenyl)amino)-5-methylpyridin-4-yl)-N-(2-hydroxy-1-phenylethyl)-1H-imidazole-4-carboxamide] | 6.30 to 7.00 | 6.30 to 7.00 | – | –
11 | CCNc1ncc(C)c(-n2ccc(C(=O)NC(CO)c3ccccc3)c2)n1 (stereo not shown) [Compound 130, 1-(2-(ethylamino)-5-methylpyrimidin-4-yl)-N-(2-hydroxy-1-phenylethyl)-1H-pyrrole-3-carboxamide] | 6.30 to 7.00 | 6.30 to 7.00 | – | –
12 | Cc1cnc(NC2CCOCC2)nc1-n1cnc(C(=O)NC(CO)c2cccc(C(F)(F)F)c2)c1 (stereo not shown) [Compound 237, N-(2-hydroxy-1-(3-(trifluoromethyl)-phenyl)ethyl)-1-(5-methyl-2-((tetrahydro-2H-pyran-4-yl)amino)-pyrimidin-4-yl)-1H-imidazole-4-carboxamide] | > 7.30 | ≥ 7.30 | – | –
13 | Cc1cnc(Nc2ccc(F)cc2Cl)nc1-n1cc(C(=O)NC(CN)c2ccccc2)cn1 (stereo not shown) [Compound 54, N-(2-amino-1-phenylethyl)-1-(2-((2-chloro-4-fluoro-phenyl)amino)-5-methylpyrimidin-4-yl)-1H-pyrazole-4-carboxamide] | 7.00 to 7.30 | ≥ 7.30 | – | –
14 | O=C(Nc1cnn(-c2ccnc(Nc3ccccc3Cl)n2)c1)N[C@H](CO)c1cccc(Cl)c1 [Compound 1, (S)-1-(1-(3-chlorophenyl)-2-hydroxyethyl)-3-(1-(2-((2-chloro-phenyl)amino)pyrimidin-4-yl)-1H-pyrazol-4-yl)urea] | > 7.30 | ≥ 7.30 | – | –
15 | Cc1cnc(N[C@H]2CCOC2)nc1-n1cnc(C(=O)NCc2cccc(Cl)c2CO)c1 [Example 270] | > 7.30 | ≥ 7.30 | – | –
16 | Cc1cnc(Nc2ccc(F)c(C(=O)N(C)C)c2)nc1-n1ccc(C(=O)NC(CO)c2cccc(Cl)c2)c1 (stereo not shown) [Compound 194, N-(1-(3-chloro-phenyl)-2-hydroxyethyl)-1-(2-((3-(dimethyl-carbamoyl)-4-fluorophenyl)amino)-5-methyl-pyrimidin-4-yl)-1H-pyrrole-3-carboxamide] | > 7.30 | ≥ 7.30 | – | –
17 | Cc1cnc(Nc2ccc(F)cc2)cc1-n1cnc(C(=O)NC(CN)c2ccc(F)cc2)c1 (stereo not shown) [Compound 230, N-(2-amino-1-(4-fluorophenyl)ethyl)-1-(2-((4-fluoro-phenyl)amino)-5-methylpyridin-4-yl)-1H-imidazole-4-carboxamide] | > 7.30 | ≥ 7.30 | – | –
18 | Cc1cnc(N[C@H]2CCOC2)nc1-n1ccc(C(=O)N(C)C(CO)c2cccc(Cl)c2)c1 (stereo partly drawn) [Compound 212, N-(1-(3-chlorophenyl)-2-hydroxyethyl)-N-methyl-1-(5-methyl-2-(((S)-tetrahydrofuran-3-yl)amino)-pyrimidin-4-yl)-1H-pyrrole-3-carboxamide] | > 7.30 | ≥ 7.30 | – | –
19 | Cc1cnc(Nc2ccc3occc3c2)nc1-n1cnc(C(=O)NC(CO)c2cccc(Cl)c2)c1 (stereo not shown) [Compound 132, 1-(2-(benzofuran-5-ylamino)-5-methylpyrimidin-4-yl)-N-(1-(3-chlorophenyl)-2-hydroxyethyl)-1H-imidazole-4-carboxamide] | > 7.30 | ≥ 7.30 | – | –
20 | O=C(Nc1cnn(-c2ccnc(Nc3ccc(F)cc3Cl)n2)c1)N[C@H](CO)c1cccc(Cl)c1 [Compound 20, (S)-1-(1-(2-((2-chloro-4-fluorophenyl)amino)pyrimidin-4-yl)-1H-pyrazol-4-yl)-3-(1-(3-chlorophenyl)-2-hydroxyethyl)urea] | > 7.30 | ≥ 7.30 | – | –
21 | Cc1cnc(NC2CCC(F)(F)CC2)nc1-n1cnc(C(=O)N[C@H](CO)c2cccc(Cl)c2)c1 [Compound 240, (S)-N-(1-(3-chlorophenyl)-2-hydroxyethyl)-1-(2-((4,4-difluorocyclo-hexyl)amino)-5-methylpyrimidin-4-yl)-1H-imidazole-4-carboxamide] | > 7.30 | ≥ 7.30 | – | –
22 | Cc1cnc(NC(C)c2ccccc2)nc1-n1ccc(C(=O)NC(CO)c2ccccc2)c1 (stereo not shown) [Compound 117, N-(2-hydroxy-1-phenylethyl)-1-(5-methyl-2-((1-phenylethyl)amino)pyrimidin-4-yl)-1H-pyrrole-3-carboxamide] | 6.30 to 7.00 | 7.00 to 7.30 | – | –
23 | Cc1cnc(Nc2ccc(F)c(N3CCOCC3)c2)nc1-n1ccc(C(=O)NC(CO)c2cccc(Cl)c2)c1 (stereo not shown) [Compound 175, N-(1-(3-chloro-phenyl)-2-hydroxy-ethyl)-1-(2-((4-fluoro-3-morpholinophenyl)amino)-5-methyl-pyrimidin-4-yl)-1H-pyrrole-3-carboxamide] | > 7.30 | ≥ 7.30 | – | –
24 | O=C(NC(CO)c1ccccc1)c1ccn(-c2nc(Nc3ccc4c(c3)OCO4)ncc2F)c1 (stereo not shown) [Compound 66, 1-(2-(benzo[d][1,3]dioxol-5-ylamino)-5-fluoropyrimidin-4-yl)-N-(2-hydroxy-1-phenylethyl)-1H-pyrrole-3-carboxamide] | > 7.30 | ≥ 7.30 | – | –
25 | O=C(Nc1cnn(-c2ccnc(Nc3ccccc3Cl)n2)c1)N[C@H](CO)c1ccccc1 [Compound 7, (S)-1-(1-(2-((2-chlorophenyl)amino)pyrimidin-4-yl)-1H-pyrazol-4-yl)-3-(2-hydroxy-1-phenylethyl)urea] | 7.00 to 7.30 | 7.00 to 7.30 | – | –
26 | Cc1cnc(Nc2ccc(F)cc2Cl)nc1-n1cnc(C(=O)NC(CN)c2cccc(Cl)c2)c1 (stereo not shown) [Compound 232, N-(2-amino-1-(3-chlorophenyl)ethyl)-1-(2-((2-chloro-4-fluorophenyl)amino)-5-methyl-pyrimidin-4-yl)-1H-imidazole-4-carboxamide] | > 7.30 | ≥ 7.30 | – | –
27 | Cc1cnc(NC2CCOC2)nc1-n1ccc(C(=O)N[C@H](CO)c2cccc(Cl)c2)c1 (stereo partly drawn) [Compound 151, N-((S)-1-(3-chlorophenyl)-2-hydroxyethyl)-1-(5-methyl-2-((tetrahydrofuran-3-yl)amino)pyrimidin-4-yl)-1H-pyrrole-3-carboxamide] | > 7.30 | ≥ 7.30 | – | –
28 | Cc1cnc(Nc2ccc3[nH]cc(C4=CCNCC4)c3c2)nc1-n1ccc(C(=O)NC(CO)c2cccc(Cl)c2)c1 (stereo not shown) [Compound 209, N-(1-(3-chlorophenyl)-2-hydroxyethyl)-1-(5-methyl-2-((3-(1,2,3,6-tetrahydro-pyridin-4-yl)-1H-indol-5-yl)amino)-pyrimidin-4-yl)-1H-pyrrole-3-carboxamide hydrochloride] | > 7.30 | ≥ 7.30 | – | –
29 | Cc1cnc(Nc2ccc3c(c2)OCO3)nc1-n1ccc(C(=O)N[C@H](CO)c2ccccc2)c1 [Compound 60, (S)-1-(2-(benzo[d][1,3]dioxol-5-ylamino)-5-methylpyrimidin-4-yl)-N-(2-hydroxy-1-phenylethyl)-1H-pyrrole-3-carboxamide] | > 7.30 | ≥ 7.30 | – | –
